{
  "source": "patent US20120121545A1",
  "about": "“Pharmaceutical Composition For Bone Disease Treatment Or Countering Inflammation, Comprising Cartilage Stem Cells As An Active Principle” (CoreStem Co., Ltd., priority 2009, published 2012)",
  "type_in_all_cases": "in vivo, Sprague-Dawley rats",
  "key": {"[1]": {"system": "osteoarthritis-induced rats", "assay": "Histopathological analysis of knee cartilage: Mankin score", "conditions": "diclofenac sodium 2 mg/kg subcutaneously once a day for 84 days", "method": "(§1) One hundred and twenty (120) 6-week-old male Sprague-Dawley rats (SLC, Japan) were used for test after accommodation for 7 days. All the test animals were kept in a polycarbonate cage, four or five each, and reared in a laboratory with temperature (20-25° C.) and humidity (40-45%) controlled. The light/dark cycle was 12 hours:12 hours, and feed (Samyang Corporation, Korea) and drinking water well provided freely. All the test animals had been fasted for at least 18 hours before sacrificing. They were treated according to “Guide for the Care and Use of Laboratory Animals by Institute of Laboratory Animal Resources, Commission on Life Science, National Research Council, USA on 1996, Washington D.C.”. On day 7 after joint surgery, the rats were grouped into 7 groups as described in Table 4 based on joint thickness and body weight. 8 rats were selected from each group (56 in total) for test.\n(§2) The cells were suspended in CSBM at four different concentrations (high concentration: 9.6×10^6 cells/rat, intermediate high concentration: 4.8×10^6 cells/rat, intermediate low concentration: 2.4×10^6 cells/rat, low concentration: 1.2×10^6 cells/rat). […] For the normal group and the osteoarthritis-induced control group, only the CSBM was administered into the articular capsule.\nFor histopathological observation and analysis of the cartilage Mankin score and cartilage thickness were measured (Table 9). Mankin score is frequently used to evaluate arthritis. A higher score is known to be related with higher inducement of osteoarthritis (Armstrong et al., 1994; Rezende et al., 2006).\nThe articular capsule taken from the knee joint of each control group and test group was fixed for 5 days in 10% neutral-buffered formalin (NBF) and decalcified in decalcifying solution (24.4% formic acid, and 0.5 N sodium hydroxide). The decalcifying solution was replaced once a day for 5 days. After the decalcification, the median joint parts of the articular capsule were cut transversely and embedded in paraffin. After preparing 3-4 μm thick tissue sections, followed by deparaffinization and hydration, the cartilage was observed after hematoxylin & eosin (H&E) staining and safranin O staining (Camplejohn and Allard, 1988; Kahveci et al., 2000; Tran et al., 2000).\nMankin score was measured by comparing damage to the knee joint tissue with that of the normal control group. Cartilage thickness of the tibia and the femur was measured by histomorphometry using an automatic image analyzer (DMI-300, DMI, Korea).\nMankin Score is Given by the Sum.\nPercent change (%) between the cell administration group and the osteoarthritis-induced control group=[(Value of the cell administration group−Value of the osteoarthritis-induced control group)/Value of the osteoarthritis-induced control group]×100 Equation 2"}, "[2]": {"system": "osteoarthritis-induced rats", "assay": "Change in knee joint thickness, osteoarthritis-induced rats", "conditions": "diclofenac sodium 2 mg/kg subcutaneously once a day for 84 days", "method": "One hundred and twenty (120) 6-week-old male Sprague-Dawley rats (SLC, Japan) were used for test after accommodation for 7 days. All the test animals were kept in a polycarbonate cage, four or five each, and reared in a laboratory with temperature (20-25° C.) and humidity (40-45%) controlled. The light/dark cycle was 12 hours:12 hours, and feed (Samyang Corporation, Korea) and drinking water well provided freely. All the test animals had been fasted for at least 18 hours before sacrificing. They were treated according to “Guide for the Care and Use of Laboratory Animals by Institute of Laboratory Animal Resources, Commission on Life Science, National Research Council, USA on 1996, Washington D.C.”. On day 7 after joint surgery, the rats were grouped into 7 groups as described in Table 4 based on joint thickness and body weight. 8 rats were selected from each group (56 in total) for test. […] The joint thickness of the rats in the control groups and test groups was measured using calipers. […] Percent change between the normal control group and the osteoarthritis-induced control group was calculated by Equation 1 in order to evaluate the degree of inducement of osteoarthritis. Also, percent change between the cell administration group and the osteoarthritis-induced control group was calculated by Equation 2 in order to more clearly represent the efficacy of the administered cells. […]"}, "[3]": {"system": "osteoarthritis-induced rats", "assay": "Knee cartilage thickness by histomorphometry", "conditions": "diclofenac sodium 2 mg/kg subcutaneously once a day for 84 days", "description": "The articular capsule taken from the knee joint of each control group and test group was fixed for 5 days in 10% neutral-buffered formalin (NBF) and decalcified in decalcifying solution (24.4% formic acid, and 0.5 N sodium hydroxide). The decalcifying solution was replaced once a day for 5 days. After the decalcification, the median joint parts of the articular capsule were cut transversely and embedded in paraffin. […]\nMankin score was measured by comparing damage to the knee joint tissue with that of the normal control group. Cartilage thickness of the tibia and the femur was measured by histomorphometry using an automatic image analyzer (DMI-300, DMI, Korea). […]"}, "[4]": {"system": "osteoarthritis-induced rats", "assay": "Growth of chondrocytes in knee cartilage (BrdU labelling)", "conditions": "diclofenac sodium 2 mg/kg subcutaneously once a day for 84 days", "method": "as §1, §2\nChondrocytes growing in the articular capsule were labeled with BrdU in order to investigate their growth due to the administration of the cartilage-derived stem cells. Since the cells labeled with BrdU are those grown after the injection of BrdU, the growth of chondrocytes can be analyzed.\n5-Bromo-2′-deoxyuridine (50 mg/kg, BrdU, MP Biomedicals, OH, USA) diluted in physiological saline to a concentration of 2 mL/kg was intraabdominally injected once 72 hours before the sacrificing of the rats of the control groups and test groups. Then, immunohistochemical staining was performed using BrdU antibody (Hwang et al., 2000; Moore et al., 2005; Ganey et al., 2003; Ito et al., 1998; Tang et al., 2007).\nThe expression pattern of BrdU was investigated using the Vector Elite ABC kit (Vector Lab. Inc., CA., USA). After washing the tissue with DPBS, reaction was performed in 3% hydrogen peroxide (H2O2) solution for 30 minutes at room temperature. After washing with DPBS, reaction was performed for 30 minutes using normal horse serum (1:100, Vector Lab. Inc., CA, USA) in order to prevent nonspecific reaction that might occur during the staining. […] The number of cells responding to BrdU antibody by 10% or more was counted. From a total of 100 chondrocytes on the articular surface of the tibia and the femur, the percentage of BrdU-positive cells was measured using an automatic image analyzer. […]"}, "[5]": {"system": "osteoarthritis-induced rats", "assay": "Change in maximum knee joint angle, osteoarthritis-induced rats", "conditions": "diclofenac sodium 2 mg/kg subcutaneously once a day for 84 days; after 84 days", "method": "One hundred and twenty (120) 6-week-old male Sprague-Dawley rats (SLC, Japan) were used for test after accommodation for 7 days. All the test animals were kept in a polycarbonate cage, four or five each, and reared in a laboratory with temperature (20-25° C.) and humidity (40-45%) controlled. The light/dark cycle was 12 hours:12 hours, and feed (Samyang Corporation, Korea) and drinking water well provided freely. All the test animals had been fasted for at least 18 hours before sacrificing. They were treated according to “Guide for the Care and Use of Laboratory Animals by Institute of Laboratory Animal Resources, Commission on Life Science, National Research Council, USA on 1996, Washington D.C.”. […]\nThe administration groups of the drug and cell were sacrificed after 84 days. After taking out the right hind leg from the hip joint and removing nearby skin, connective tissues and muscles, the maximum knee joint angle was measured with the theoretical maximum as 0°. […]\nPercent change between the normal control group and the osteoarthritis-induced control group was calculated by Equation 1 in order to evaluate the degree of inducement of osteoarthritis. Also, percent change between the cell administration group and the osteoarthritis-induced control group was calculated by Equation 2 in order to more clearly represent the efficacy of the administered cells. […]"}},
  "data": [
    {"smiles": "O=C(O)Cc1ccccc1Nc1c(Cl)cccc1Cl", "note": "[Control drug, diclofenac sodium]", "values": [
      {"measurement": "Mankin score of the femur, decrease as compared to the osteoarthritis-induced control group", "setting": "[1]", "value": 27.85, "unit": "%"},
      {"measurement": "Mankin score of the femur: Clones", "setting": "[1]", "value": "2.38 ± 0.92"},
      {"measurement": "Mankin score of the femur: Hypocellularity", "setting": "[1]", "value": "1.38 ± 0.52"},
      {"measurement": "Mankin score of the femur: Safranin O", "setting": "[1]", "value": "1.25 ± 0.46"},
      {"measurement": "Mankin score of the femur: Sum (Max = 12)", "setting": "[1]", "value": "7.13 ± 1.36"},
      {"measurement": "Mankin score of the femur: Surface", "setting": "[1]", "value": "2.13 ± 0.35"},
      {"measurement": "Mankin score of the tibia, decrease as compared to the osteoarthritis-induced control group", "setting": "[1]", "value": 20.59, "unit": "%"},
      {"measurement": "Mankin score of the tibia: Clones", "setting": "[1]", "value": "1.75 ± 0.71"},
      {"measurement": "Mankin score of the tibia: Hypocellularity", "setting": "[1]", "value": "1.63 ± 0.52"},
      {"measurement": "Mankin score of the tibia: Safranin O", "setting": "[1]", "value": "1.38 ± 0.74"},
      {"measurement": "Mankin score of the tibia: Sum (Max = 12)", "setting": "[1]", "value": "6.75 ± 1.16"},
      {"measurement": "Mankin score of the tibia: Surface", "setting": "[1]", "value": "2.00 ± 0.53"},
      {"measurement": "reduced knee joint thickness as compared to the osteoarthritis control group", "setting": "[2]", "value": 5.79, "unit": "%"},
      {"measurement": "Knee cartilage thickness, Femur", "setting": "[3]", "value": "409.48 ± 69.80"},
      {"measurement": "cartilage thickness of the femur, increase as compared to the osteoarthritis-induced control group", "setting": "[3]", "value": 35.11, "unit": "%"},
      {"measurement": "cartilage thickness of the tibia, increase as compared to the osteoarthritis-induced control group", "setting": "[3]", "value": 68.81, "unit": "%"},
      {"measurement": "Number of BrdU-positive cells/100 chondrocytes, Femur", "setting": "[4]", "value": "8.63 ± 4.03 /100 chondrocytes"},
      {"measurement": "Number of BrdU-positive cells/100 chondrocytes, Tibia", "setting": "[4]", "value": "8.13 ± 3.52 /100 chondrocytes"},
      {"measurement": "number of BrdU-positive cells on the articular surface of the femur, increase as compared to the osteoarthritis-induced control group", "setting": "[4]", "value": 9.52, "unit": "%"},
      {"measurement": "number of BrdU-positive cells on the articular surface of the tibia, increase as compared to the osteoarthritis-induced control group", "setting": "[4]", "value": 1.56, "unit": "%"},
      {"measurement": "Maximum knee joint angle", "setting": "[5]", "value": "60.75 ± 6.78", "unit": "°"},
      {"measurement": "knee joint angle decreased as compared to the normal control group", "setting": "[5]", "value": 18.18, "unit": "%"}
    ]}
  ]
}
